Columns and labels:
[1] = system: P2Y receptors; assay: Ca2+ signals; format: cell-based, rat; conditions: for Δ[Ca2+]i Peak: peak increase in [Ca2+]i, populations of cultured ASMC; for pEC50 Peak (Ca2+-free): peak response in Ca2+-free HBS; for pEC50 Peak (with Ca2+): peak response in HBS; for pEC50 Ca2+ entry: sustained Ca2+ entry signal; for Δ[Ca2+]i Sustained: sustained increase measured between 250 and 300 s, cultured ASMC
[2] = ref Abbracchio et al., 2006; cited from earlier work
[3] = system: phospholipase C; format: cell-based, rat
[4] = system: Gi/o; format: cell-based, rat
[5] = molecular target: T1, P2Y14 receptors (Rattus norvegicus, UniProt O35881); format: cell-based; conditions: agonist 10 µM; not shown
T1 sequence (O35881 1-305): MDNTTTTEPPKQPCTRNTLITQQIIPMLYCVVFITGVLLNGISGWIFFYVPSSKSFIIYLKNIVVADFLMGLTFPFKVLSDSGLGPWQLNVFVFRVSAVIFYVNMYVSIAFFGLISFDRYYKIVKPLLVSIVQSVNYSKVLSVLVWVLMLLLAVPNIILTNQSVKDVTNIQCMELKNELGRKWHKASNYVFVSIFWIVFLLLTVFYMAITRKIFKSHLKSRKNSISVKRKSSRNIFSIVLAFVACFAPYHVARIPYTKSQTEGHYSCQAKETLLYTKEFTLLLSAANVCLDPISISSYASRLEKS

[6] = system: P2X1 and P2X3 receptors; conditions: not shown

Compound | Δ[Ca2+]i Peak [1] [nM] | pEC50 Peak (with Ca2+) [1] | pEC50 Ca2+ entry [1] | Δ[Ca2+]i Sustained [1] [nM] | also measured
O=c1ccn([C@@H]2O[C@H](COP(=O)(O)OP(=O)(O)OP(=O)(O)O)[C@@H](O)[C@H]2O)c(=O)[nH]1 [UTP] | 254 ± 47 | 5.23 ± 0.22 | 4.64 ± 0.32 | 67 ± 5 | pEC50 Peak (Ca2+-free) [1]: 5.39 ± 0.15
S=C=Nc1cccc(NC(=S)NCCCCNC(=S)Nc2cccc(N=C=S)c2)c1 [MRS2578, N,N″-1,4-butanediylbis [N′-(3-isothiocyanatophenyl)thio] urea] |  |  |  |  | Solubility in aqueous solution [2]: sparingly soluble; Stability in aqueous solution [2]: unstable
CSc1nc(N)c2ncn([C@@H]3O[C@H](COP(=O)(O)OP(=O)(O)O)[C@@H](O)[C@H]3O)c2n1 [2-MeSADP, 2-methylthio-adenosine-5′-diphosphate] | 122 ± 30 | 7.23 ± 0.53 | 5.58 ± 0.16 | 18 ± 4 | 
N[C@@H]1[C@H](O)[C@@H](COP(=O)(O)OP(=O)(O)OP(=O)(O)O)O[C@H]1n1ccc(=O)[nH]c1=O [2′-amino-UTP, 2′-amino-2′-deoxyuridine-5′-triphosphate] | 301 ± 34 | 5.58 ± 0.37 | 5.40 ± 0.23 | 84 ± 36 | 
COc1ccc2c(c1)CC[C@@H]1[C@@H]2CC[C@]2(C)[C@@H](NCCCCCCN3C(=O)CCC3=O)CC[C@@H]12 [U73343, 1-[6-[((17β)-3-methoxyestra-1,3,5 (10)-trien-17-yl)amino]hexyl]-2,5-pyrrolidinedione] |  |  |  |  | Effect on Ca2+ signals evoked by ATP ([3]; ATP 100 µM, inactive analogue of U73122): no effect
O=c1ccn([C@@H]2O[C@H](COP(=O)(O)OP(=O)(O)OP(=O)(O)O)[C@@H](O)[C@H]2O)c(=S)[nH]1 [2-thio-UTP, 2-thio-uridine-5′-triphosphate] | 327 ± 42 | 5.89 ± 0.29 |  | 88 ± 26 | 
Nc1ncnc2c1ncn2[C@@H]1O[C@H](COP(=O)(O)OP(=O)(O)OP(=O)(O)O)[C@@H](O)[C@H]1O [ATP] | 248 ± 48 | 5.83 ± 0.03 | 5.01 ± 0.13 | 64 ± 20 | pEC50 of ATP, peak Ca2+ signal, after Pertussis toxin [4]: 5.30 ± 0.08; pEC50 of ATP, peak Ca2+ signal, without Pertussis toxin ([4]; paired control): 5.63 ± 0.09; pEC50 Peak (Ca2+-free) [1]: 5.95 ± 0.10
Pertussis toxin |  |  |  |  | Effect on responses to UDP ([4]; Pertussis toxin 100 ng·mL−1, 24 h): unaffected
[N-]=[N+]=N[C@@H]1[C@H](O)[C@@H](COP(=O)(O)OP(=O)(O)OP(=O)(O)O)O[C@H]1n1ccc(=O)[nH]c1=O [2′-azido-UTP, 2′-azido-2′-deoxyuridine-5′-triphosphate] | 142 ± 29 | 4.67 ± 0.32 | 4.67 ± 0.06 | 55 ± 20 | 
CSc1nc(N)c2ncn([C@H]3[C@H](O)[C@H](O)[C@]4(COP(=O)(O)OP(=O)(O)O)C[C@H]34)c2n1 [MRS2365, (N)-methanocarba-2-MeSADP] | 154 ± 5 | 8.68 ± 0.16 | 8.11 ± 0.32 | 18 ± 7 | pEC50 Peak (Ca2+-free) [1]: 8.56 ± 0.06
COc1ccc2c(c1)CC[C@@H]1[C@@H]2CC[C@]2(C)[C@@H](NCCCCCCN3C(=O)C=CC3=O)CC[C@@H]12 [U73122, 1-[6-[[(17β)-3-methoxyestra-1,3,5 (10)-trien-17-yl]amino]hexyl]-1H-pyrrole-2,5-dione] |  |  |  |  | pIC50 for inhibition of Ca2+ signals evoked by ATP ([3]; ATP 100 µM, inhibitor added 5 min before and during stimulation): 5.78 ± 0.07; Effect on Ca2+ responses to UTP and UDP ([3]; not shown): abolished
diphosphoric acid 1-α-D-glucopyranosyl ester 2-[(4′-methylthio)uridin-5″-yl] ester [MRS2690] |  |  |  |  | Ca2+ signals evoked in cultured ASMC [5]: Neither MRS2690 (10 µM) nor UDP-glucose (10 µM) evoked Ca^2+ signals
O=c1ccn([C@@H]2O[C@H](COP(=O)(O)OP(=O)(O)O)[C@@H](O)[C@H]2O)c(=O)[nH]1 [UDP] | 94 ± 20 | 6.45 ± 0.45 | 6.83 ± 0.35 | 25 ± 6 | pEC50 Peak (Ca2+-free) [1]: 6.16 ± 0.43
Nc1ncnc2c1ncn2C1OC(COP(=O)(O)CP(=O)(O)OP(=O)(O)O)C(O)C1O (stereo not drawn) [αβ-meATP, αβ-methylene-adenosine-5′-triphosphate] |  |  |  |  | Ca2+ response in cultured ASMC [6]: no response

— PMC2913105 (British Journal of Pharmacology, 2010)
